Read-outs that look alike come from different tables or passages of the source. Square brackets hold non-standard residues; d marks the D form. Ends that are not written are not given here. Peptide text beside a SMILES is read from it. * marks the point of attachment. 5FAM = O=C1OC2(c3ccc(O)cc3Oc3cc(O)ccc32)c2ccc(C(=O)*)cc21
How the values were obtained:
[1] = In vitro cytotoxicity by LDH (lactate dehydrogenase) analysis; type: cell-based; settings: human; 5-FAM labeled peptides, 10 uM (also stated 10 ug/ml), 1 h, 37° C., HeLa cells; read-out: LDH % cytotoxicity
Description: In order to assess the in vitro cytotoxicity of the peptides, an LDH (lactate dehydrogenase) analysis was carried out, using LDH kit (Promega G1782), according to manufacturer instructions.
Briefly, HeLa cells from 5 ml of confluent T75 flask were seed in 96 well plate at 10×10^4 cells/mL in 0.1 ml DMEM supplied with 10% Fetal Calf Serum. After 24 hrs incubation with growth medium, wells were replaced with Serum Free growth medium for 24 hrs, and then cells were washed with OptiMEM and replaced with 0.1 ml peptide solution at 10 uM for 1 h at 37° C. 50 ul of supernatant were transferred to the new plate and detected according to Cyto Tox 96, Non Radioactive cytotoxicity assay, (LDH kit Promega G1782). Table 5 presents the results of in vitro cytotoxicity measurements by LDH for S22, S24, S36 and S40 peptides and two positive control peptides; Tat(47-57) and R9. LDH experiment was done with fluorescent labeled (5-FAM) peptides in concentration of […] and the % of cytotoxicity was measured by LDH levels.

HeLa cells = type: cell-based; settings: for cell viability (MTT), FIG. 7: 26.6 ug/ml and 8.88 ug/ml, 16 hours, normalized by untreated cells; for dose response of cell viability (MTT), FIG. 8: average of duplicates
Description: In order to examine CPPs capability to deliver into the cell a cargo, the ability of the CPPs to facilitate intracellular cargo delivery of a pro apoptotic peptide—klaklakklaklak (also referred herein as (klaklak)2), was examined. (klaklak)2 is unable to efficiently penetrate cell membranes on its own, and thus using this pro-apoptotic peptide requires efficient intracellular delivery to trigger mitochondrial disruption and mitochondrial-dependent apoptosis. HeLa cells were seeded in DMEM supplemented with 10% fetal Bovine serum (FBS) in 96-well plates, 10,000 cells/well in a total volume of 200 μL 24 hours prior to their treatment with the peptide. Cells were incubated with any one of the CPPs and/or any one of the control peptides ([…]) conjugated to pro-apoptotic peptide (klaklak)2 through a short flexible linker of Gly-Gly (as described in the above peptide synthesis section for SEQ ID NOs: 24-32) for 16 hours under tissue culture conditions. Cell viability was then assessed using MTT[3-(4,5-dimethylthiazol-2-yl)-2,5-diphenyl-2H-tetrazo-liumbromide] assay (Catalog number M5655, Sigma, Israel). MTT reagent was added to cells for 4 hours, following cell lysis using DMSO and absorbance was measured at 492 nm. As positive controls (klaklak)2 conjugated to TAT or R9 were used, corresponding to SEQ ID NOs:26 and 25, respectively. As negative controls (klaklak)2 on its own (SEQ ID NO:31), (klaklak)2 conjugated to N5 ([…]) and peptides not conjugated to (klaklak)2 were used.

Compound | cytotoxicity at 1 h, 10 µM [1] [%] | cell viability (MTT), FIG. 7 (HeLa cells; HeLa cells) | other results
N=C(N)NCCC[C@H](NC(=O)[C@H](CCCNC(=N)N)NC(=O)[C@H](CCCNC(=N)N)NC(=O)[C@H](CCCNC(=N)N)NC(=O)[C@H](CCCNC(=N)N)NC(=O)[C@H](CCCNC(=N)N)NC(=O)[C@H](CCCNC(=N)N)NC(=O)[C@H](CCCNC(=N)N)NC(=O)[C@H](CCCNC(=N)N)NC(=O)c1ccc2c(c1)C(=O)OC21c2ccc(O)cc2Oc2cc(O)ccc21)C(N)=O [9R, RRRRRRRRR, reference compound] | 2 | – | –
CC(C)C[C@H](NC(=O)[C@H](CCCCN)NC(=O)[C@H](CCCCN)NC(=O)[C@H](CC(C)C)NC(=O)[C@@H](NC(=O)[C@H](CCCCN)NC(=O)[C@H](CCCCN)NC(=O)c1ccc2c(c1)C(=O)OC21c2ccc(O)cc2Oc2cc(O)ccc21)[C@@H](C)O)C(=O)N[C@@H](Cc1c[nH]c2ccccc12)C(=O)N[C@@H](CCCCN)C(=O)N[C@@H](CCCCN)C(=O)N[C@@H](CCCCN)C(=O)N[C@@H](CCCCN)C(=O)N[C@@H](CCCNC(=N)N)C(=O)N[C@@H](CCCCN)C(N)=O [S24, KKTLKKLWKKKKRK] (5FAM-KKTLKKLWKKKKRK-NH2) | 10 | – | –
CC(=O)N[C@@H](CCCCN)C(=O)N[C@@H](CCCCN)C(=O)N[C@H](C(=O)N[C@@H](CC(C)C)C(=O)N[C@@H](CCCCN)C(=O)N[C@@H](CCCCN)C(=O)N[C@@H](CC(C)C)C(=O)N[C@@H](Cc1c[nH]c2ccccc12)C(=O)N[C@@H](CCCCN)C(=O)N[C@@H](CCCCN)C(=O)N[C@@H](CCCCN)C(=O)N[C@@H](CCCCN)C(=O)N[C@@H](CCCNC(=N)N)C(=O)N[C@@H](CCCCN)C(=O)NCC(=O)NCC(=O)N[C@H](CCCCN)C(=O)N[C@H](CC(C)C)C(=O)N[C@H](C)C(=O)N[C@H](CCCCN)C(=O)N[C@H](CC(C)C)C(=O)N[C@H](C)C(=O)N[C@H](CCCCN)C(=O)N[C@H](CCCCN)C(=O)N[C@H](CC(C)C)C(=O)N[C@H](C)C(=O)N[C@H](CCCCN)C(=O)N[C@H](CC(C)C)C(=O)N[C@H](C)C(=O)N[C@H](CCCCN)C(N)=O)[C@@H](C)O [S24-klaklak, KKTLKKLWKKKKRKGG-klaklakklaklak] (Ac-KKTLKKLWKKKKRKGG[dK][dL][dA][dK][dL][dA][dK][dK][dL][dA][dK][dL][dA][dK]-NH2) | – | reduction in cell viability | EC50 (HeLa cells; 16 hr, HeLa cells, unit only from the X axis (log uM concentration), read-out: EC50 of cell viability (MTT), FIG. 9): 8.45 µM
N=C(N)NCCC[C@H](NC(=O)c1ccc2c(c1)C(=O)OC21c2ccc(O)cc2Oc2cc(O)ccc21)C(=O)N[C@@H](CCCNC(=N)N)C(=O)N[C@@H](CCCNC(=N)N)C(=O)N[C@@H](Cc1c[nH]cn1)C(=O)N[C@@H](CCC(N)=O)C(=O)N[C@@H](CCCNC(=N)N)C(=O)N[C@@H](CCCCN)C(=O)N[C@@H](Cc1ccc(O)cc1)C(=O)N[C@@H](CCCNC(=N)N)C(=O)N[C@@H](CCCNC(=N)N)C(=O)N[C@@H](Cc1ccc(O)cc1)C(N)=O [S36, RRRHQRKYRRY] (5FAM-RRRHQRKYRRY-NH2) | 3 | – | –
CC(=O)N[C@@H](CCCNC(=N)N)C(=O)N[C@@H](CCCNC(=N)N)C(=O)N[C@@H](CCCNC(=N)N)C(=O)N[C@@H](Cc1c[nH]cn1)C(=O)N[C@@H](CCC(N)=O)C(=O)N[C@@H](CCCNC(=N)N)C(=O)N[C@@H](CCCCN)C(=O)N[C@@H](Cc1ccc(O)cc1)C(=O)N[C@@H](CCCNC(=N)N)C(=O)N[C@@H](CCCNC(=N)N)C(=O)N[C@@H](Cc1ccc(O)cc1)C(=O)NCC(=O)NCC(=O)N[C@H](CCCCN)C(=O)N[C@H](CC(C)C)C(=O)N[C@H](C)C(=O)N[C@H](CCCCN)C(=O)N[C@H](CC(C)C)C(=O)N[C@H](C)C(=O)N[C@H](CCCCN)C(=O)N[C@H](CCCCN)C(=O)N[C@H](CC(C)C)C(=O)N[C@H](C)C(=O)N[C@H](CCCCN)C(=O)N[C@H](CC(C)C)C(=O)N[C@H](C)C(=O)N[C@H](CCCCN)C(N)=O [S36-klaklak, RRRHQRKYRRYGG-klaklakklaklak] (Ac-RRRHQRKYRRYGG[dK][dL][dA][dK][dL][dA][dK][dK][dL][dA][dK][dL][dA][dK]-NH2) | – | reduction in cell viability | EC50 (HeLa cells; 16 h): 11.2 µM
CC(C)C[C@H](NC(=O)[C@H](Cc1ccccc1)NC(=O)c1ccc2c(c1)C(=O)OC21c2ccc(O)cc2Oc2cc(O)ccc21)C(=O)N[C@@H](CCCNC(=N)N)C(=O)N[C@@H](CCCNC(=N)N)C(=O)N[C@@H](CCCNC(=N)N)C(=O)N[C@@H](CCCNC(=N)N)C(=O)N[C@@H](CCCNC(=N)N)C(=O)N[C@@H](Cc1ccccc1)C(=O)N[C@H](C(=O)N[C@@H](CCCNC(=N)N)C(=O)N[C@@H](CCC(N)=O)C(=O)N[C@H](C(N)=O)[C@@H](C)O)[C@@H](C)O [S40, FLRRRRRFTRQT] (5FAM-FLRRRRRFTRQT-NH2) | 8 | – | –
FLRRRRRFTRQTGG-klaklakklaklak (Ac-FLRRRRRFTRQTGG[dK][dL][dA][dK][dL][dA][dK][dK][dL][dA][dK][dL][dA][dK]-NH2) [S40-klaklak, S40 conjugated to (klaklak)2 with GG linker] | – | reduction in cell viability | –
KPSARMLLLKGFGKGG-klaklakklaklak (Ac-KPSARMLLLKGFGKGG[dK][dL][dA][dK][dL][dA][dK][dK][dL][dA][dK][dL][dA][dK]-NH2) [S8-klaklak, S8 conjugated to (klaklak)2 with GG linker] | – | reduction in cell viability | –
RRRRRRRRRGG-klaklakklaklak (RRRRRRRRRGG[dK][dL][dA][dK][dL][dA][dK][dK][dL][dA][dK][dL][dA][dK]) [R9-klaklak, positive control R9 conjugated to (klaklak)2 with GG linker, reference compound] | – | – | dose response of cell viability (MTT), FIG. 8 (HeLa cells; 16 hr, HeLa cells): effective dose response curve
VATIKSVSFYTRKGG-klaklakklaklak (Ac-VATIKSVSFYTRKGG[dK][dL][dA][dK][dL][dA][dK][dK][dL][dA][dK][dL][dA][dK]-NH2) [N2-klaklak, negative control peptide N2 conjugated to (klaklak)2 with GG linker, reference compound] | – | – | dose response of cell viability (MTT), FIG. 8 (HeLa cells; 16 hr, HeLa cells): no dose response curve—no effect
YGRKKRRQRRRGG-klaklakklaklak (YGRKKRRQRRRGGKLAKLAKKLAKLAK) [TAT-klaklak, positive control TAT conjugated to (klaklak)2 with GG linker, reference compound] | – | – | dose response of cell viability (MTT), FIG. 8 (HeLa cells; 16 hr, HeLa cells): effective dose response curve
klaklakklaklak (KLAKLAKKLAKLAK; D-amino acids) [(klaklak)2, pro apoptotic peptide used as cargo, reference compound] | – | almost no reduction in cell viability | –

Reference: patent publication US20140056811A1, “NEW CELL-PENETRATING PEPTIDES AND USES THEREOF” (COMPUGEN LTD., priority 2010, published 2014)
